The record followed here is paper PMC10631261 (Chemical Science, 2023).

One series has as its target JMJD5 (Homo sapiens, UniProt Q8N371). In words: biochemical. From the text:
(§1) To investigate the potential of BNS for selective FIH inhibition, its selectivity was investigated with respect to other 2OG-dependent protein oxidising enzymes, that is PHD2, Jumonji-C domain-containing protein 5 (JMJD5), aspartate/asparagine-β-hydroxylase (AspH) and KDM4A, using reported SPE-MS inhibition assays.[58,61,69,70] In addition to PHD2 and KDM4A, we included AspH and JMJD5 in our selectivity studies, because AspH, like FIH, catalyses protein aspartate- and asparagine-residue hydroxylation (although in epidermal growth factor-like domains),[71,72] and because JMJD5 is structurally closely related to FIH.[73,74]
(§2) 3. Biochemical procedures
(§3) Protein production and purification
(§4) PAGE analysis) according to established procedures.
(§5) FIH, PHD2, AspH, JMJD5 and KDM4A inhibition assays
(§6) The in vitro FIH,1, 2 PHD2,1 AspH,38 JMJD536 and KDM4A39 inhibition assays were performed as […]
(§7) KDM4A). Synthetic peptide substrates were used: HIF-1α C-terminal transactivation domain fragment […]
(§8) H3Lys9 bearing three methyl groups at the N ϵ position, H3Lys4 substituted by an Ala and H3Lys14 substituted by an Ile residue) for KDM4A.39 Peptides were prepared as C-terminal amides by GL Biochem (Shanghai) Ltd. Peptide hydroxylation in the case of FIH, PHD2, AspH and JMJD5 (+16 Da mass shift) or peptide demethylation in the case of KDM4A ( -14 Da mass shift) was monitored by SPE-MS. […]

Another series deals with AspH (Homo sapiens, UniProt Q12797). In words: biochemical.
Chain of AspH (Q12797 315-758): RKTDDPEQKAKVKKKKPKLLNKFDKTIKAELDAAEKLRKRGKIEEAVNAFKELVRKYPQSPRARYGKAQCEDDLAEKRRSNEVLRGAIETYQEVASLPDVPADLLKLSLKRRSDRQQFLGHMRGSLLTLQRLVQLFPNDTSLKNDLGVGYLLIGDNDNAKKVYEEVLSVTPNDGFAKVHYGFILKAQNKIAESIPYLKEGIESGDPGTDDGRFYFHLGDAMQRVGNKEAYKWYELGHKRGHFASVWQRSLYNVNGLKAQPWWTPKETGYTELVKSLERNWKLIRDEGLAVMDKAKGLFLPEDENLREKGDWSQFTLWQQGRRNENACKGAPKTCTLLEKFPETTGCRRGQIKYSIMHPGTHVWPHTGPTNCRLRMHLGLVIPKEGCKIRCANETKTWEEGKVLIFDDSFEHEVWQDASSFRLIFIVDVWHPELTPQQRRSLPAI
Source text: as §1, §2, §3, §4, §5, §6, §7, §8

The target in a further series is KDM4A (Homo sapiens, UniProt O75164). In words: biochemical. The series is classed as biochemical.
Chain of KDM4A (O75164 1-359): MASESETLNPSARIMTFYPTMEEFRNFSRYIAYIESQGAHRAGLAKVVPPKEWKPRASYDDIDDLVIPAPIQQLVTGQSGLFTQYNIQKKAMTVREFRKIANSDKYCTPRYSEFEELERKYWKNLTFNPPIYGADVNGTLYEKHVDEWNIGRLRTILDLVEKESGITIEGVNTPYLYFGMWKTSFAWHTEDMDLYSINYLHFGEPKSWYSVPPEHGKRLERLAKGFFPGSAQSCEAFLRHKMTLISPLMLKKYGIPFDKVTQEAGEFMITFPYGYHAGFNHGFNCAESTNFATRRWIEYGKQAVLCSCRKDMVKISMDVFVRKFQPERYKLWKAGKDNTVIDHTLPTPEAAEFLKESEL
Source text: as §1, §2, §3, §4, §5, §6, §7, §8

The target in another series is PHD2 (Homo sapiens, UniProt Q9GZT9). The series can be described thus: biochemical. As for the experimental part:
as §2, §3, §4, §5, §6, §7, §8

In a further series the target is T1, FIH (Homo sapiens, UniProt Q9NWT6).
T1 construct: made in house
T1 sequence (Q9NWT6 whole entry): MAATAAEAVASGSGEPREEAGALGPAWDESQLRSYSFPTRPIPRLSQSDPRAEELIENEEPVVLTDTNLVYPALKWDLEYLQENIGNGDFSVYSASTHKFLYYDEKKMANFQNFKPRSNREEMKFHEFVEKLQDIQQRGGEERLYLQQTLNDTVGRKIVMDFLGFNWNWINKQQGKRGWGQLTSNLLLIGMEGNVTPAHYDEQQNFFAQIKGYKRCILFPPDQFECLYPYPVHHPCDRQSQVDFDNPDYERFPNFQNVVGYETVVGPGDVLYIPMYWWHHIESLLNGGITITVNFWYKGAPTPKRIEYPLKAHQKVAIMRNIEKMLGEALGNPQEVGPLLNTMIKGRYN
The series can be described thus: SPE-MS FIH inhibition assay. It is filed as biochemical. The settings on record: for FIH inhibition potency relative to 2,4-PDCA (more potent): IC50 comparison with 2,4-PDCA. As for the experimental part:
as §3, §4, §5, §6, §7, §8

Series [1] concerns EGLN3. In words: qRT-PCR of EGLN3 expression in 786-O cells. It is filed as cell-based. The settings on record: VHL-deficient 786-O cells. As for the experimental part: (§9) 4. Methods for cell studies […]
(§10) in Minimum Essential Medium (MEM, GIBCO) with 10% fetal bovine serum (FBS, BI), 100 U/mL penicillin and 100 μg/mL streptomycin (1 × P/S, NCM Biotech). […]
(§11) and 100 μg/mL streptomycin (1 × P/S, NCM Biotech).
(§12) Quantitative PCR Analysis of Gene Expression […]
(§13) treated with vehicle (DMSO) or an inhibitor (at the concentrations indicated) for 12 h. Total RNA was isolated from cells and tissues using Trizol regents (Vazyme, China). 1 μg RNA was used for reverse transcription using HiScript III RT SuperMix for qPCR (Vazyme, China). cDNAs were amplified in a ChamQ Universal SYBR qPCR Master Mix (Vazyme, China). Quantitative PCR (qPCR) was performed on […]
(§14) a ABI QuantStudio 3 system.
(§15) The relative amount of mRNA was calculated after
(§16) 3T3-L1 derived adipocytes. […]
In general terms: Real-time PCR tracks product formation cycle by cycle.

Series [2] deals with EGLN3. The series can be described thus: qRT-PCR of EGLN3 expression in Hep3B cells. It is filed as cell-based, human. The settings on record: for increase of EGLN3 expression relative to DMSO: 50 μM, 12 h, qRT-PCR. How it is done: as §9, §10, §11, §12, §13, §14, §15, §16
[3] abbreviates: IC50 comparison with compound 20.

Where two headings read alike, the source gives them in different places.

Chain of PHD2 (Q9GZT9 181-426): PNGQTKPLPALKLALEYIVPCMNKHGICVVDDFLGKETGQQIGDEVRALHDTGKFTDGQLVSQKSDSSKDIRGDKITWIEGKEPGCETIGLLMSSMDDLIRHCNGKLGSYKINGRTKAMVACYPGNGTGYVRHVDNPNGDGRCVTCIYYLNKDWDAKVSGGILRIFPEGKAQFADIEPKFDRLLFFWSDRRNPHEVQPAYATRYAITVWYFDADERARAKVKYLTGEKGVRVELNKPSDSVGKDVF
Chain of JMJD5 (Q8N371 whole entry, the tested form may be a part): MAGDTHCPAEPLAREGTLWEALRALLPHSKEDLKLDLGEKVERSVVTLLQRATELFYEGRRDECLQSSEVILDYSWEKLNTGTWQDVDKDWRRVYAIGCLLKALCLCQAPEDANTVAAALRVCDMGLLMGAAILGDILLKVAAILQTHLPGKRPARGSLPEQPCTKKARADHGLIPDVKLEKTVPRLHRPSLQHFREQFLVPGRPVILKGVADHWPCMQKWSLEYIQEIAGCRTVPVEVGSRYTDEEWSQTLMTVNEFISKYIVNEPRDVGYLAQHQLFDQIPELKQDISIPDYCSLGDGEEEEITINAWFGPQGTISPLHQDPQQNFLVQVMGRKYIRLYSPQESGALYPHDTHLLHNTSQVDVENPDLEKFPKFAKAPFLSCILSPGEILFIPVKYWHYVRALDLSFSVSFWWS

Take `O=C(O)Cc1csc(=NC(=O)C2CCN(S(=O)(=O)C3CCCC3)C2)n1O` (centres unmarked) [compound 43]: the melting point (as a rule, the temperature, or range, at which the solid turns liquid) fell in the range of 177 to 180 °C. Also, the IC50 (as a rule, the concentration at which inhibition is half-maximal) on JMJD5 (read-out: JMJD5 IC50) was determined as 17.4 ± 6 µM. Besides, the IC50 against AspH was 35.5 ± 3.2 µM. Moreover, the IC50 against KDM4A is > 100 µM. In addition, the IC50 against PHD2 was determined as 9.9 ± 0.5 µM. The same molecule came in with an IC50 against FIH of 0.81 ± 0.18 µM.

On to `CC1(C(=O)/N=c2\scc(CC(=O)O)n2O)CN(S(=O)(=O)c2ccccc2)C1` [compound 25], for which the melting point was 156 to 158 °C. Further, on JMJD5 (read-out: JMJD5 IC50), the IC50 is 32.6 ± 6.7 µM. Further, the IC50 on AspH is > 100 µM. Moreover, the IC50 against KDM4A is > 100 µM. In addition, the IC50 on PHD2 worked out at 33.5 ± 1 µM. At FIH, this molecule showed an IC50 of 1.2 ± 0.2 µM.

Molecule `O=C(O)Cc1cs/c(=N\C(=O)CNS(=O)(=O)c2ccccc2)n1O` [compound 19] showed a melting point of 178 to 180 °C. In addition, at JMJD5 (read-out: JMJD5 IC50), the IC50 stood at 12 ± 0.6 µM. On AspH, this molecule gave an IC50 of 3.1 ± 0.4 µM. At KDM4A, this molecule displayed an IC50 of 17.4 ± 0.2 µM. The same molecule displayed an IC50 on PHD2 of 15.5 ± 4.6 µM. The same molecule came in with an IC50 against FIH of 3.7 ± 1.5 µM. Besides, the “loss in FIH inhibition relative to 20” value on FIH (setting [3]) was ~4 fold.

Regarding `O=C(O)Cc1csc(=NC(=O)C2CCN(S(=O)(=O)c3ccc(Oc4ccccc4)cc3)C2)n1O` (centres unmarked) [compound 39], the melting point lay in the range of 179 to 183 °C. Moreover, at JMJD5 (read-out: JMJD5 IC50), the IC50 is 8.6 ± 0.2 µM. On AspH, this molecule had an IC50 of 29.8 ± 4.3 µM. Besides, the IC50 against KDM4A was > 100 µM. The same molecule yielded an IC50 on PHD2 of 3.1 ± 0.2 µM. The “effect on EGLN3 gene expression” value with EGLN3 [1] is listed as “upregulation of EGLN3”. Also, at FIH, the IC50 came to 0.29 ± 0.03 µM and the “FIH inhibition potency relative to 2,4-PDCA (more potent)” value is reported as ~10 fold. Further, at FIH (as judged by IC50 values), the “selectivity for FIH inhibition over AspH inhibition” value (“selectivity … over AspH inhibition” for short) is listed as > 100 fold and the “selectivity for FIH inhibition over KDM4A inhibition” value is on record as > 300 fold. Further, in the series on EGLN3 [2], the “increase of EGLN3 expression relative to DMSO” value was ~2.5 fold and the “EGLN3 upregulation on co-administration with FG-4592 relative to compound alone” value is “no additional effect”.

`O=C(O)Cc1cs/c(=N\C(=O)C2CN(S(=O)(=O)c3ccccc3)C2)n1O` [compound 24] had a melting point of 170 to 173 °C. Also, the IC50 at JMJD5 (read-out: JMJD5 IC50) turned out to be 29.1 ± 4.4 µM. Further, the IC50 at AspH was determined as 60.9 ± 24.1 µM. Besides, the IC50 on KDM4A was > 100 µM. In addition, the IC50 at PHD2 came out at 5.2 ± 0.7 µM. Also, on FIH, the IC50 is 0.45 ± 0.17 µM. Besides, the “selectivity for FIH inhibition over PHD2 inhibition” value on FIH (as judged by IC50 values) is listed as 12 fold.

In turn, `O=C(O)Cc1csc(=NC(=O)C2CCN(S(=O)(=O)c3ccc(-c4ccccc4)cc3)C2)n1O` (centres unmarked) [compound 38] had a melting point of 180 to 183 °C. Also, at JMJD5 (read-out: JMJD5 IC50), the IC50 came out at 31.9 ± 2 µM. Moreover, half-maximal inhibition on AspH (IC50) was put at 30.2 ± 10.9 µM. Moreover, at KDM4A, the IC50 was > 100 µM. Moreover, half-maximal inhibition on PHD2 (IC50) required 3.1 ± 0.1 µM. Also, in the series on EGLN3 [1], the “effect on EGLN3 gene expression” value was “upregulation of EGLN3”. On FIH, the IC50 stood at 0.26 ± 0.01 µM and the “FIH inhibition potency relative to 2,4-PDCA (more potent)” value is ~10 fold. On FIH (as judged by IC50 values), the “selectivity … over AspH inhibition” value is on record as > 100 fold and the “selectivity for FIH inhibition over KDM4A inhibition” value was > 300 fold. In the series on EGLN3 [2], the “increase of EGLN3 expression relative to DMSO” value is ~2.5 fold and the “EGLN3 upregulation on co-administration with FG-4592 relative to compound alone” value is reported as “greater increase”.

With `O=C(O)Cc1csc(=NC(=O)C2CCN(S(=O)(=O)c3ccccc3)C2)n1O` (centres unmarked) [compound 26], the melting point is 185 to 187 °C. Further, the IC50 at JMJD5 (read-out: JMJD5 IC50) amounted to 12.5 ± 1 µM. For the same molecule, the IC50 on AspH came to 37.8 ± 11.3 µM. Further, the IC50 against KDM4A was > 100 µM. Besides, the IC50 at PHD2 came to 12.4 ± 0.8 µM. Moreover, at FIH, the IC50 amounted to 0.5 ± 0.02 µM; the “selectivity for FIH with respect to PHD2, JMJD5, AspH and KDM4A inhibition” value is reported as > 25 fold. In addition, the “increase of FIH inhibition potency relative to 20” value at FIH (setting [3]) is given as ~2 fold. At FIH (as judged by IC50 values), the “selectivity … over AspH inhibition” value is ~75 fold, the “selectivity for FIH inhibition over JMJD5 inhibition” value is recorded as ~25 fold and the “selectivity for FIH inhibition over PHD2 inhibition” value is reported as ~25 fold.

The molecule `O=C(O)Cc1cs/c(=N\C(=O)CCNC(=O)c2ccccc2)n1O` [compound 17] showed a melting point of 180 to 183 °C. It took 4.6 ± 1.7 µM to reach half-maximal inhibition at JMJD5 (IC50). At AspH, this molecule yielded an IC50 of 28.3 ± 6.5 µM. Moreover, the IC50 against KDM4A was > 100 µM. Besides, at PHD2, inhibition was half-maximal at 3.6 ± 0.4 µM (IC50). Besides, the IC50 against FIH stood at 4.6 ± 0.7 µM. On FIH (setting [3]), the “loss in FIH inhibition relative to 20” value is listed as ~5 fold.
